Laboratory results taken from patent US20090012104A1, “Inhibitors of 5'-Methylthioadenosine Phosphorylase and 5'-Methylthioadenosine/S-Adenosylhomocysteine Nucleosidase” (priority 2004, published 2009).

Target: T1, E. coli MTA/AdoHcy nucleosidase (MTAN) (Escherichia coli, UniProt P0AF12)
T1 construct: hexahistidine; made in house; host or cells: bacterial expression vector
Assay: MTAN direct UV spectrophotometric enzyme assay (cleavage of MTA, absorbance at 275 nm)
Assay type: biochemical
Settings: initial rates fitted to competitive inhibition; 100-250 μM MTA, 50 mM sodium phosphate pH 7, 0-1 μM inhibitor, 25° C; read-out: Ki (inhibitor constant for the initial rate reactions)
Protocol: The gene for E. coli MTA/AdoHcy nucleosidase (MTAN) was amplified and cloned into a bacterial hexahistidine plasmid expression vector. Induced recombinant enzyme was purified by Nickel-chelate chromatography, and dialyzed into 100 mM sodium phosphate buffer, pH 7. Enzyme purity was assessed by SDS-PAGE and concentration assigned using the experimentally determined extinction coefficient (ε280=10480 M^−1cm^−1).
MTAN assays were performed in 1 mL quartz cuvettes using a Perkin Elmer Lambda 35 UV/V is spectrometer outfitted with KinLab and UV WinLab software. This direct UV spectrophotometric assay follows the decrease in absorbance at 275 nm that accompanies the cleavage of MTA to MTR and Ade. (2-(4-Amino-5H-pyrrolo[3,2-d]pyrimidin-7-yl)-5-methyl-sulfanylmethyl-pyrrolidine-3,4-diol) and (2-Amino-4-[5-(4-amino-5H-pyrrolo[3,2-d]pyrimidin-7-yl)-3,4 dihydroxy-pyrrolidin-2-ylmethylsulfanyl]-butyric acid) inhibitor concentrations were assigned using UV absorbance and the extinction coefficient of 9-deazaadenine. […] Reactions were initiated by the addition of […] MTAN enzyme to the 1 mL assay mixture, and the change in UV absorbance followed for 20-25 minutes. […] Inhibitor constants for the initial rate reactions (Ki's) were calculated by fitting the results to the equation for competitive inhibition.

T1 sequence (P0AF12 whole entry): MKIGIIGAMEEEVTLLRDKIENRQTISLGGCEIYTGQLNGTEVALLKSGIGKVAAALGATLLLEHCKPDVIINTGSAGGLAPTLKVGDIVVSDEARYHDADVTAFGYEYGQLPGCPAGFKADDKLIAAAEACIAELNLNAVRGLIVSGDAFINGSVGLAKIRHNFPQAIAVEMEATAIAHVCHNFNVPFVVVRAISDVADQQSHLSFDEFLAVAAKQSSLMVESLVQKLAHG

In the case of `Nc1ncnc2c(C3NC(CSCCC(N)C(=O)O)C(O)C3O)c[nH]c12` (stereo not shown) [2-Amino-4-[5-(4-amino-5H-pyrrolo[3,2-d]pyrimidin-7-yl)-3,4-dihydroxy-pyrrolidin-2-ylmethylsulfanyl]-butyric acid], the Ki is reported as under 10 nM.
